Here are results for 2 compounds from US9927424B2, “Assays for identifying compounds that modulate bitter taste” (Chromocell Corporation, priority 2013, dated 2018).

In test [1] the target is T1, TAS2R39 (Homo sapiens, UniProt P59534).
T1 construct: expressed in transfected cells
T1 sequence (P59534 1-338): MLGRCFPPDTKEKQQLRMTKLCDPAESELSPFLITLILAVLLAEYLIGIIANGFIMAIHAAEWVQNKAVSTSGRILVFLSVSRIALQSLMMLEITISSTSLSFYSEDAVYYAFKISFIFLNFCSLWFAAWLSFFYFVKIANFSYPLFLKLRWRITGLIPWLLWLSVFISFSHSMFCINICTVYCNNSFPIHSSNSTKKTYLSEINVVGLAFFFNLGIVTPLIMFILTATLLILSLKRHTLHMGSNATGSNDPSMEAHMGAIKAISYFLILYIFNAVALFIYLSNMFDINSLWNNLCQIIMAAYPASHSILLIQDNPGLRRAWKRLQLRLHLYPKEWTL
The test is described as follows: Calcium fluorescence functional assay, TAS2R39 cell line with mouse Gα15. It is filed as cell-based. On the procedure: (§1) A panel of cell lines expressing eight specific bitter taste receptors, a subset of the panel of twenty-five bitter receptors described in International Patent Application Publication WO 2010/088633 (see, e.g., Example 26), was used for the purpose of these analyses. Accordingly, each cell line of the panel expressed a human bitter taste receptor and mouse Gα15 signaling protein.
(§2) Each of the Examples below utilized the following functional assay: • Day 1: Stable cell lines were seeded onto black wall/clear bottom 96-well, plates (e.g., Corning, 3904). Approximately 40K cells were added per well and incubated at 37° C., 5% CO2 overnight in cell growth media (DMEM (Sigma, D5796) supplemented with 10% Fetal Bovine Serum (Sigma, 5178), 2 mM Glutamine (Sigma, G7513)). • Day 2: Growth media was discarded and cells were incubated at 37° C., 5% CO2 for 60 minutes in 100 ul of load solution containing 1× Ca-3 dye (Molecular Devices, R8090), 1% DMSO in buffer containing 130 mM NaCl, 2 mM CaCl2, 5 mM KCl, 1.2 mM MgCl2, 10 mM HEPES and 10 mM Glucose (pH 7.0). Probenecid was not included in the load solution. • Functional assay: After dye loading, cell plates were placed in a fluorescent plate reader (e.g., FDSS6000 (Hamamatsu, Japan)) and receptor stimulation was measured by adding 50 ul of 3× concentrated ligand/agonist stock. Fluorescence was monitored continuously for 10 s before agonist addition and for 100-250 s after stimulation with agonist.
(§3) Receptor Activation is defined as follows: • % Activation=[((Maximum signal fluorescence−Minimum signal fluorescence)−(Maximum control fluorescence−Minimum control fluorescence))/(Maximum buffer fluorescence−Minimum buffer fluorescence)]*100 • Functional Response=[(Maximum signal fluorescence−Minimum signal fluorescence)−(Maximum control fluorescence−Minimum control fluorescence)] • Signal fluorescence: refers to the change in fluorescence seen with addition of ligand • Control fluorescence: refers to the change in fluorescence seen with addition of buffer (negative control) • Calcium signals from ligand and control were normalized to the basal fluorescence of the cells prior to the stimulation.
(§4) A concentration analysis was performed and EC50 values were calculated by nonlinear regression using the formula: Y=Bottom+(Top−Bottom)/(1+10^((Log EC50−X)*Hill Slope)), X=log of dose or concentration, Y=Response (increasing as X increases), Top=maximum signal, Bottom=minimum signal. EC50 (half maximal effective concentration) refers to the molar concentration of the agonist which produces 50% of the maximum possible effective response from that agonist.

The target of test [2] is TAS2R16 (Homo sapiens, UniProt Q9NYV7). The note with it: PCT/US12/61400; cited from earlier work.
For test [3], the target named is T2, TAS2R38 (PAV) (Homo sapiens, UniProt P59533, A49P/I296V).
T2 construct: expressed in transfected cells
T2 sequence (P59533 1-333 A49P/I296V): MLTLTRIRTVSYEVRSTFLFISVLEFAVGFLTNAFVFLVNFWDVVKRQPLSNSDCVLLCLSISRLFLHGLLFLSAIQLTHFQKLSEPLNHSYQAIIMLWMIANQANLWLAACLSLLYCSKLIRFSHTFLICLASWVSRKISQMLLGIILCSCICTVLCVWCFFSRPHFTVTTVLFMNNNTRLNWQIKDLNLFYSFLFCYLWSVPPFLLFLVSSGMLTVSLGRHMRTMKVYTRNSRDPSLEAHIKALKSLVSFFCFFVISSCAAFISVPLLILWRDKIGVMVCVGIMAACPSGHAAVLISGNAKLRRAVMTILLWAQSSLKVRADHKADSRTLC
The test can be described thus: Calcium fluorescence functional assay, TAS2R38 (PAV) cell line with mouse Gα15. It is filed as cell-based. As for the experimental part: as §1, §2, §3, §4

In test [4] the target is T3, TAS2R9 (Homo sapiens, UniProt Q9NYW1).
T3 construct: expressed in transfected cells
T3 sequence (Q9NYW1 1-312): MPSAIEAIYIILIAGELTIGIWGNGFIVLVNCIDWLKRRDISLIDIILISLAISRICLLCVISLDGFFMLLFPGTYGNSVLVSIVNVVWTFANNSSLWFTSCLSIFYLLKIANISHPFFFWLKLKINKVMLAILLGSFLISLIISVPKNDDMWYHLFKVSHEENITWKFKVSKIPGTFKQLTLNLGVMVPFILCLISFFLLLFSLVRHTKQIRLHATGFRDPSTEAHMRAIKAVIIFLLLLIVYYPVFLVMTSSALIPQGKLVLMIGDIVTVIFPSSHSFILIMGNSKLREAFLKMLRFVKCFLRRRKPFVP
The note with it: PCT/US12/61400; cited from earlier work.

Test [5] has as its target T4, TAS2R44 (Homo sapiens, UniProt P59538).
T4 construct: expressed in transfected cells
T4 sequence (P59538 1-309): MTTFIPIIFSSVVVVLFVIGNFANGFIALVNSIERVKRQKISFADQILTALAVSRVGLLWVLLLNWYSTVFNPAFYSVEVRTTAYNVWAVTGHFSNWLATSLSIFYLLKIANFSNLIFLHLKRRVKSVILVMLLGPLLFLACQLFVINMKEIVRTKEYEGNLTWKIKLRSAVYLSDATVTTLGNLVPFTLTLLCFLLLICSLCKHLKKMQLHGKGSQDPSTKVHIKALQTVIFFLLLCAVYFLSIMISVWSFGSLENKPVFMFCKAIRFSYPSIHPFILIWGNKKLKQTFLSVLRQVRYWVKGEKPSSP
The conditions noted are these: PCT/US12/61400; cited from earlier work.

The target in test [6] is T5, TAS2R13 (Homo sapiens, UniProt Q9NYV9).
T5 construct: expressed in transfected cells
T5 sequence (Q9NYV9 1-303): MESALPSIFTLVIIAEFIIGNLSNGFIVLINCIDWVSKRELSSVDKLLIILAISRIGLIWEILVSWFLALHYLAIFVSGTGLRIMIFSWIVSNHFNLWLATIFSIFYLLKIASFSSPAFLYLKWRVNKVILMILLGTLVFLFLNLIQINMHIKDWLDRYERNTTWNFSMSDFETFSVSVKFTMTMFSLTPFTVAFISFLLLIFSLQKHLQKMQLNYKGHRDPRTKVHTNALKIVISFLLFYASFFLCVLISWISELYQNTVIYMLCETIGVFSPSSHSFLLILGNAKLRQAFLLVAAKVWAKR
The conditions noted are these: PCT/US12/61400; cited from earlier work.

In test [7] the target is T6, TAS2R14 (Homo sapiens, UniProt Q9NYV8).
T6 construct: expressed in transfected cells
T6 sequence (Q9NYV8 1-317): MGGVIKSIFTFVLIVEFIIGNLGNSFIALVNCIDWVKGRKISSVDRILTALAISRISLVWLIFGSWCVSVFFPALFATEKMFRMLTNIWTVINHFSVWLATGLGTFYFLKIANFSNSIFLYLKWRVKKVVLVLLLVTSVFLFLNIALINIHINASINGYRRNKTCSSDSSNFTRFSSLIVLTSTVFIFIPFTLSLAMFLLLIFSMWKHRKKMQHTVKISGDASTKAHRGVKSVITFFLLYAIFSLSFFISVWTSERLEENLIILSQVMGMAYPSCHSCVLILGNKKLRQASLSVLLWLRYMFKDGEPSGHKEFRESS
The conditions noted are these: PCT/US12/61400; cited from earlier work.

Test [8] addresses TAS2R1 (Homo sapiens, UniProt Q9NYW7). The conditions noted are these: PCT/US12/61400; cited from earlier work.
In test [9] the target is T7, TAS2R4 (Homo sapiens, UniProt Q9NYW5).
T7 construct: expressed in transfected cells
T7 sequence (Q9NYW5 1-299): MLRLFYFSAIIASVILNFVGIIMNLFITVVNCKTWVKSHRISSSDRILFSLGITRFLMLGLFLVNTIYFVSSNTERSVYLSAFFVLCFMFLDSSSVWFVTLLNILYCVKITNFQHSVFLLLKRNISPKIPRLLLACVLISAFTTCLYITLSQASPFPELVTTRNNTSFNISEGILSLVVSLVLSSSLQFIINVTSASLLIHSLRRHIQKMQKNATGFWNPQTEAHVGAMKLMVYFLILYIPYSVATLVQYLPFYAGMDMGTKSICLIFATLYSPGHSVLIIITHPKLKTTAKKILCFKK
The conditions noted are these: PCT/US12/61400; cited from earlier work.

The target in test [10] is T7, TAS2R4. The test can be described thus: Calcium fluorescence functional assay, TAS2R4 cell line with mouse Gα15. It counts as cell-based. The conditions noted are these: 20 mM tastant; change in intracellular calcium. As for the experimental part: as §1, §2, §3, §4
Background: A change in cytosolic calcium serves as a functional read-out for many receptors and channels.

Test [11] concerns the target T4, TAS2R44. The test is described as follows: Calcium fluorescence functional assay, TAS2R44 cell line with mouse Gα15. It is filed as cell-based. The note with it: 20 mM tastant; change in intracellular calcium. As for the experimental part:
as §1, §2, §3, §4

The target in test [12] is T5, TAS2R13. The test is described as follows: Calcium fluorescence functional assay, TAS2R13 cell line with mouse Gα15. It counts as cell-based. The note with it: 20 mM tastant; change in intracellular calcium. On the procedure:
as §1, §2, §3, §4

The target of test [13] is T3, TAS2R9. The test can be described thus: Calcium fluorescence functional assay, TAS2R9 cell line with mouse Gα15. The note with it: 20 mM tastant; change in intracellular calcium. It is filed as cell-based. On the procedure:
as §1, §2, §3, §4

Test [14] concerns the target T6, TAS2R14. The test can be described thus: Calcium fluorescence functional assay, TAS2R14 cell line with mouse Gα15. It counts as cell-based. The conditions noted are these: 20 mM tastant; change in intracellular calcium. On the procedure: as §1, §2, §3, §4
Setting [15] is: 20 mM tastant, change in intracellular calcium.
The mark [16] stands for this setting: approximately, increasing concentrations of tastant.

Sequence of TAS2R16 (Q9NYV7 whole entry): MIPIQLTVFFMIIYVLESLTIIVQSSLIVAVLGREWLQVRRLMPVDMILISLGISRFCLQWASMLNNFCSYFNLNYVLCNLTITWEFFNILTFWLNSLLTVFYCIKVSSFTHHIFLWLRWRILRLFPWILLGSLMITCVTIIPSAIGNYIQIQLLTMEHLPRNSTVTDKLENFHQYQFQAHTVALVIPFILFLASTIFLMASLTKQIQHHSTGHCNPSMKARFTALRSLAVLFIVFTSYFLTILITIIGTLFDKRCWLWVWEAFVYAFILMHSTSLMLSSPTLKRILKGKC
Sequence of TAS2R1 (Q9NYW7 whole entry): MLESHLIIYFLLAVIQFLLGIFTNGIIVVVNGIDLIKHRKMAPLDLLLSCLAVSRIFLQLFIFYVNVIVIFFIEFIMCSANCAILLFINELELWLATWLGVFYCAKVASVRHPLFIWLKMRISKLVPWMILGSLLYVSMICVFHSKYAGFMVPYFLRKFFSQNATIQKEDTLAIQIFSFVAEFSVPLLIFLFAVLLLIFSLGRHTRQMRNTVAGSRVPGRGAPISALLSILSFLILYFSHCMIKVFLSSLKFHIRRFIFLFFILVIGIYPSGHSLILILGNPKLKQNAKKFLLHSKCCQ

As usually defined, the EC50 is the concentration that produces a half-maximal response. For the compound `CC1=CC(=O)NS(=O)(=O)O1` [Acesulfame K], in [1] (setting [15]), the “TAS2R39 bitter receptor activity (functional response)” value was “strongly and specifically responded”. Moreover, the EC50 in test [1] (setting [16]) and in test [3] (setting [16]) was 5 to 10 mM each time. Also, in test [2], the “TAS2R16 response to stimulation, previously shown” value is given as “specifically respond”. Further, the “TAS2R38 (PAV) bitter receptor activity (functional response)” value in test [3] (setting [15]) is “strongly and specifically responded”. Moreover, the “TAS2R9 response to stimulation, previously shown” value in test [4] is recorded as “specifically respond”. Also, in test [5], the “TAS2R44 response to stimulation, previously shown” value was “specifically respond”. Besides, in [6], the “TAS2R13 response to stimulation, previously shown” value is given as “specifically respond”. The “TAS2R14 response to stimulation, previously shown” value in [7] is “specifically respond”. Also, the “TAS2R1 response to stimulation, previously shown” value in test [8] is recorded as “specifically respond”. Further, the “TAS2R4 response to stimulation, previously shown” value in [9] is “specifically respond”.

As to `CC(O)C(=O)[O-].[K+]` (stereo not shown) [potassium lactate], the “TAS2R4 bitter receptor activity (functional response)” value in [10] is given as “activate”. Also, the “TAS2R44 bitter receptor activity (functional response)” value in [11] is “activate”. Also, the “TAS2R13 bitter receptor activity (functional response)” value in test [12] is reported as “activate”. Further, the “TAS2R9 bitter receptor activity (functional response)” value in test [13] is on record as “activate”. Moreover, in test [14], the “TAS2R14 bitter receptor activity (functional response)” value was “activate”.
